Values of other authors as cited in patent publication US9616027B2, “Pramipexole sustained release tablet formulation and manufacturing method thereof and use thereof” (SHIJIAZHUANG RAPISTEP PHARMACEUTICAL TECHNOLOGY R&D INC., priority 2013, dated 2017).
Read-outs that look alike come from different tables or passages of the source.

Tests used:
[1] = not given; remark: listed apart in the source
[2] = test system: patients with advanced Parkinson's disease; conditions: with levodopa
[3] = in vivo

- crystal modification (monohydrate) under grinding (grinding): does not change under grinding
- stability in the solid state (solid state): very stable
- stability of solution to light (solution): light sensitive
- solubility in a pH 2 to pH 7.4 buffer media ([1]; pH 2 to pH 7.4 buffer media): higher than 10 mg/ml
- Water-solubility ([1]; water): greater than 20 mg/ml
- effect of food intake on absorption [3]: Food intake shall influence absorption
- kinetic characteristics [3]: linear kinetic characteristics
SMILES: CCCN[C@H]1CCc2nc(N)sc2C1 [Pramipexole, (S)-2-Amino-4,5,6,7-tetrahydro-6-(propylamino) benzothiazole]
- UPDRS score ([2]; 0.375 mg increased to 4.5 mg, 18 weeks of treatment): −11.0
- regulation change of the "off" state ([2]; 18 weeks of treatment): -2.1 h
- UPDRS score ([2]; 33 weeks of treatment): −11.1
